PubChem BioAssay AID2060486 (Molecular Pharmacology Branch, DTP, NCI, 2025)

System: IGROV1 complex spheroids (HUVEC, MSC), viability % test/control
Assay: Anticancer human tumor IGROV1 cell line growth inhibition [GQUAD];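 note: spheroids exposed to compounds for 7 days before readout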;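 for viability, T/C: 100% = DMSO vehicle control viability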
Settings: for IC50: curve of first compound; for viability, T/C: stronger effect = lower value
Summary of the method: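 Tumor cells were grown as complex spheroids with HUVEC endothelial cells and mesenchymal stem cells as stroma. G-quadruplex stabilizers were combined with targeted agents over half-log dilutions from near the clinical Cmax, or from 10 microM.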

[1] = second compound 0.0316 µM, first compound 0.0316 µM
[2] = second compound 0.0316 µM, first compound 0.1 µM
[3] = second compound 0.0316 µM, first compound 0.316 µM
[4] = second compound 0.0316 µM, first compound 1 µM
[5] = second compound 0.0316 µM, first compound 3.16 µM
[6] = second compound 0.0316 µM, first compound 10 µM
[7] = second compound 0.1 µM, first compound 0.0316 µM
[8] = second compound 0.1 µM, first compound 0.1 µM
[9] = second compound 0.1 µM, first compound 0.316 µM
[10] = second compound 0.1 µM, first compound 1 µM
[11] = second compound 0.1 µM, first compound 3.16 µM
[12] = second compound 0.1 µM, first compound 10 µM
[13] = second compound 0.316 µM, first compound 0.0316 µM
[14] = second compound 0.316 µM, first compound 0.1 µM
[15] = second compound 0.316 µM, first compound 0.316 µM
[16] = second compound 0.316 µM, first compound 1 µM
[17] = second compound 0.316 µM, first compound 3.16 µM
[18] = second compound 0.316 µM, first compound 10 µM
[19] = second compound 1 µM, first compound 0.0316 µM
[20] = second compound 1 µM, first compound 0.1 µM
[21] = second compound 1 µM, first compound 0.316 µM
[22] = second compound 1 µM, first compound 1 µM
[23] = second compound 1 µM, first compound 3.16 µM
[24] = second compound 1 µM, first compound 10 µM
[25] = second compound 3.16 µM, first compound 0.0316 µM
[26] = second compound 3.16 µM, first compound 0.1 µM
[27] = second compound 3.16 µM, first compound 0.316 µM
[28] = second compound 3.16 µM, first compound 1 µM
[29] = second compound 3.16 µM, first compound 3.16 µM
[30] = second compound 3.16 µM, first compound 10 µM
[31] = second compound 10 µM, first compound 0.0316 µM
[32] = second compound 10 µM, first compound 0.1 µM
[33] = second compound 10 µM, first compound 0.316 µM
[34] = second compound 10 µM, first compound 1 µM
[35] = second compound 10 µM, first compound 3.16 µM
[36] = second compound 10 µM, first compound 10 µM

Structure (SMILES): C=CCn1c(=O)c2cnc(Nc3ccc(N4CCN(C)CC4)cc3)nc2n1-c1cccc(C(C)(C)O)n1 + Cc1cnc(CNC(=O)c2c(=O)c3ccc(N4CCCN(C)CC4)nc3n3c2sc2ccccc23)cn1
- IC50 (second compound 0.0316 µM): 45.1 nM
- IC50 (second compound 0.1 µM): < 31.6 nM
- IC50 (second compound 0.316 µM): < 31.6 nM
- IC50 (second compound 1 µM): < 31.6 nM
- IC50 (second compound 3.16 µM): < 31.6 nM
- IC50 (second compound 10 µM): < 31.6 nM
- viability, T/C [1]: 59%
- viability, T/C [2]: 29.8%
- viability, T/C [3]: 5.19%
- viability, T/C [4]: 2.29%
- viability, T/C [5]: 2.42%
- viability, T/C [6]: 1.97%
- viability, T/C [7]: 23.5%
- viability, T/C [8]: 18%
- viability, T/C [9]: 4.3%
- viability, T/C [10]: 2.46%
- viability, T/C [11]: 2.38%
- viability, T/C [12]: 2.57%
- viability, T/C [13]: 16.9%
- viability, T/C [14]: 9.27%
- viability, T/C [15]: 4.48%
- viability, T/C [16]: 2.42%
- viability, T/C [17]: 2.95%
- viability, T/C [18]: 2.48%
- viability, T/C [19]: 9.95%
- viability, T/C [20]: 9.65%
- viability, T/C [21]: 3.88%
- viability, T/C [22]: 3.14%
- viability, T/C [23]: 3.18%
- viability, T/C [24]: 3.24%
- viability, T/C [25]: 11.6%
- viability, T/C [26]: 7.96%
- viability, T/C [27]: 4.12%
- viability, T/C [28]: 3.52%
- viability, T/C [29]: 3.96%
- viability, T/C [30]: 3.47%
- viability, T/C [31]: 7.24%
- viability, T/C [32]: 6.29%
- viability, T/C [33]: 4.68%
- viability, T/C [34]: 3.1%
- viability, T/C [35]: 4.62%
- viability, T/C [36]: 2.93%

Structure (SMILES): CC(C)(O)C1CCC(Nc2ccc3ncc(-c4cccc(C(F)(F)F)c4)n3n2)CC1 (stereo unspecified) + Cc1cnc(CNC(=O)c2c(=O)c3ccc(N4CCCN(C)CC4)nc3n3c2sc2ccccc23)cn1
- IC50 (second compound 0.0316 µM): 429 nM
- IC50 (second compound 0.1 µM): < 31.6 nM
- IC50 (second compound 0.316 µM): < 31.6 nM
- IC50 (second compound 1 µM): < 31.6 nM
- IC50 (second compound 3.16 µM): < 31.6 nM
- IC50 (second compound 10 µM): < 31.6 nM
- viability, T/C [1]: 71.3%
- viability, T/C [2]: 68.4%
- viability, T/C [3]: 55.7%
- viability, T/C [4]: 34%
- viability, T/C [5]: 20.2%
- viability, T/C [6]: 16.9%
- viability, T/C [7]: 35.6%
- viability, T/C [8]: 32.7%
- viability, T/C [9]: 33.9%
- viability, T/C [10]: 26%
- viability, T/C [11]: 14.1%
- viability, T/C [12]: 10.2%
- viability, T/C [13]: 24.9%
- viability, T/C [14]: 25.8%
- viability, T/C [15]: 17.4%
- viability, T/C [16]: 20.5%
- viability, T/C [17]: 14.8%
- viability, T/C [18]: 11.4%
- viability, T/C [19]: 17%
- viability, T/C [20]: 17.6%
- viability, T/C [21]: 16.2%
- viability, T/C [22]: 16.5%
- viability, T/C [23]: 9.63%
- viability, T/C [24]: 7.48%
- viability, T/C [25]: 12.5%
- viability, T/C [26]: 9.36%
- viability, T/C [27]: 10.4%
- viability, T/C [28]: 10.4%
- viability, T/C [29]: 7.96%
- viability, T/C [30]: 1.27%
- viability, T/C [31]: 10%
- viability, T/C [32]: 9.42%
- viability, T/C [33]: 9.42%
- viability, T/C [34]: 5.73%
- viability, T/C [35]: 8.46%
- viability, T/C [36]: 0.12%

Structure (SMILES): CCCS(=O)(=O)Nc1ccc(F)c(C(=O)c2c[nH]c3ncc(-c4ccc(Cl)cc4)cc23)c1F + Cc1cnc(CNC(=O)c2c(=O)c3ccc(N4CCCN(C)CC4)nc3n3c2sc2ccccc23)cn1
- IC50 (second compound 0.0316 µM): 1470 nM
- IC50 (second compound 0.1 µM): < 31.6 nM
- IC50 (second compound 0.316 µM): < 31.6 nM
- IC50 (second compound 1 µM): < 31.6 nM
- IC50 (second compound 3.16 µM): < 31.6 nM
- IC50 (second compound 10 µM): < 31.6 nM
- viability, T/C [1]: 77.1%
- viability, T/C [2]: 71.3%
- viability, T/C [3]: 50.1%
- viability, T/C [4]: 52.3%
- viability, T/C [5]: 51.9%
- viability, T/C [6]: 14.2%
- viability, T/C [7]: 44.5%
- viability, T/C [8]: 42.7%
- viability, T/C [9]: 41.1%
- viability, T/C [10]: 31.6%
- viability, T/C [11]: 37.9%
- viability, T/C [12]: 9.64%
- viability, T/C [13]: 21%
- viability, T/C [14]: 33.1%
- viability, T/C [15]: 25.4%
- viability, T/C [16]: 24.6%
- viability, T/C [17]: 14.4%
- viability, T/C [18]: 7.38%
- viability, T/C [19]: 15.1%
- viability, T/C [20]: 17.2%
- viability, T/C [21]: 11.9%
- viability, T/C [22]: 15.9%
- viability, T/C [23]: 14.6%
- viability, T/C [24]: 5.36%
- viability, T/C [25]: 9.19%
- viability, T/C [26]: 7.43%
- viability, T/C [27]: 10.5%
- viability, T/C [28]: 10.6%
- viability, T/C [29]: 9.32%
- viability, T/C [30]: 4.31%
- viability, T/C [31]: 10.1%
- viability, T/C [32]: 9.63%
- viability, T/C [33]: 8.82%
- viability, T/C [34]: 8.04%
- viability, T/C [35]: 6.37%
- viability, T/C [36]: 5.19%
